Tested on: log phase NDM-1 Klebsiella Pneumoniae (NCTC13443)
Test: Time-kill method over 24 hours (CFU counts)
Assay type: cell-based
Conditions: FIG. 1
Protocol: As described hereinabove, time-kill methods are another accepted test for ascertaining the presence or absence of synergy, and involve comparing the dynamic effect of a drug combination with each drug alone when assessing the effect on bacterial log or stationary-growth over time.
• 1. Bacterial strain used: NCTC13443 strain of Klebsiella Pneumoniae • 2. Growth of bacteria: Log phase growth of NCTC13443 was carried out according to known methods in the art, e.g. SOP R-005-00 Log Phase Growth of Bacteria. • 3. Compound preparation: dichlorophen and meropenem trihydrate were both obtained from commercial sources (e.g. Sigma-Aldrich® UK). • 4. The overnight culture was diluted with nutrient broth (Oxoid) to 10^7 CFU/ml and 280 μl and 290 μl of the culture was added to each combination well and drug respectively, to make the final concentration of 300 μl. • 5. Incubation of the compounds with the bacterial suspension was carried out for 24 hours. At 0, 2, 4, 7 and 24 hours, CFU counts were performed to measure the kill effects of the drug combination.

Structure (SMILES) | effect against log phase NDM-1 Klebsiella Pneumoniae (time-kill) (used alone at 64 mg/L) | effect against log phase NDM-1 Klebsiella Pneumoniae (time-kill) (used alone at 512 mg/L)
Oc1ccc(Cl)cc1Cc1cc(Cl)ccc1O [dichlorophen, 4-chloro-2-[(5-chloro-2-hydroxyphenyl)methyl] phenol] | little or no effect | 
C[C@@H](O)[C@H]1C(=O)N2C(C(=O)O)=C(S[C@@H]3CN[C@H](C(=O)N(C)C)C3)[C@H](C)[C@H]12 [meropenem trihydrate] |  | little or no effect

Source: patent US20200000742A1, “COMBINATION” (priority 2016, published 2020)
